We go through 14 compounds from patent US20160235727A1, “NOVEL PYRROLIDINE DERIVED BETA 3 ADRENERGIC RECEPTOR AGONISTS” (Merck Sharp & Dohme Corp., priority 2013, published 2016).

For experiment [1], the system named is rats. As to conditions: cited from earlier work.
In experiment [2] the target is T1, human β3-AR (Homo sapiens, UniProt P13945).
T1 construct: expressed in transfected cells; host or cells: CHO (Chinese hamster ovary) cells, stably transfected
Nature of the experiment: cAMP functional agonist assay (LANCE TR-FRET) in CHO cells expressing cloned human β3-AR. The format is cell-based. To be noted: for EC50: CHO cells stably expressing cloned human β3-adrenoceptor, cAMP release, read-out: Human β3-AR Agonism EC50; for Fold drop in potency vs. 2-chloropyridine analog: EC50 of comparative example divided by EC50 of corresponding 2-chloropyridine compound; for Human β3-AR Agonist Activity (%): percent maximum activation relative to isoproterenol. (In general: TR-FRET usually uses a lanthanide donor and a delayed reading to cut background.)

Setting [3] is: intravenous, cystometric studies.

T1 sequence (P13945 whole entry): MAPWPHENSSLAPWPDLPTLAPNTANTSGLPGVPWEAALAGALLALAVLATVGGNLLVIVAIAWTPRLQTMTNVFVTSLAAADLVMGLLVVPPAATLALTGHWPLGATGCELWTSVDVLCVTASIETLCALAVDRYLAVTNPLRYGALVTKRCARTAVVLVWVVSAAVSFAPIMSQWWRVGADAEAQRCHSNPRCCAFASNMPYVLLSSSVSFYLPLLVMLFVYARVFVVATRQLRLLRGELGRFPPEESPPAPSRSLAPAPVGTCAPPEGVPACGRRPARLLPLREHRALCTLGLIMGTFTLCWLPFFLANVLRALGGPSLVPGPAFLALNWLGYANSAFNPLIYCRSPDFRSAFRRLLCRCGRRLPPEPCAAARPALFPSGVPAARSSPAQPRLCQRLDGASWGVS

For the compound `C[C@H](Cc1ccc2c(c1)OC(C(=O)[O-])(C(=O)[O-])O2)NC[C@H](O)c1cccc(Cl)c1.[Na+].[Na+]` [CL316243], the bladder pressure result in experiment [1] (intravenous administration) is recorded as “reduces”. In experiment [1] (setting [3]), the bladder capacity entry was “increases”, the micturition interval result is reported as “prolongation” and the residual urine volume entry is on record as “without increasing”.
`CN(Cc1cnccn1)C(=O)c1ccc(C[C@@H]2CC[C@H]([C@H](O)c3cncc(F)c3)N2)cc1` [Example 40-R, 4-(((2S,5R)-5-((R)-(5-fluoropyridin-3-yl)(hydroxy)methyl)pyrrolidin-2-yl)methyl)-N-methyl-N-(pyrazin-2-ylmethyl)benzamide]: in experiment [2], the EC50 is 373 nM, the “Fold drop in potency vs. 2-chloropyridine analog” value amounted to 32.0 fold and the “Human β3-AR Agonist Activity (%)” value was determined as 87%.
`Cc1cc([C@@H](O)[C@H]2CC[C@@H](Cc3ccc(C(=O)N(C)Cc4cnccn4)cc3)N2)cnc1Cl` [Example 40-S, 4-(((2S,5R)-5-((R)-(6-chloro-5-methylpyridin-3-yl)(hydroxy)methyl)pyrrolidin-2-yl)methyl)-N-methyl-N-(pyrazin-2-ylmethyl)benzamide]: in experiment [2], the EC50 amounted to 3130 nM, the “Fold drop in potency vs. 2-chloropyridine analog” value was 268.2 fold and the “Human β3-AR Agonist Activity (%)” value is recorded as 60%.
`CC(c1cnccn1)N(C)C(=O)c1ccc(C[C@@H]2CC[C@H]([C@H](O)c3ccc(Cl)nc3)N2)cc1` (stereo partly drawn) [Example 41-A, 4-(((2S,5R)-5-((R)-(6-chloropyridin-3-yl)(hydroxy)methyl)pyrrolidin-2-yl)methyl)-N-methyl-N-(1-(pyrazin-2-yl)ethyl)benzamide]: in experiment [2], the EC50 is 2 nM and the “Human β3-AR Agonist Activity (%)” value is given as 98%.
Regarding `CC(c1cnccn1)N(C)C(=O)c1ccc(C[C@@H]2CC[C@H]([C@H](O)c3ccccc3)N2)cc1` (stereo partly drawn) [Example 41-B, 4-(((2S,5R)-5-((R)-hydroxy(phenyl)methyl)pyrrolidin-2-yl)methyl)-N-methyl-N-(1-(pyrazin-2-yl)ethyl)benzamide], in experiment [2], the EC50 was determined as 16 nM, the “Fold drop in potency vs. 2-chloropyridine analog” value is reported as 9.1 fold and the “Human β3-AR Agonist Activity (%)” value amounted to 109%.
`CC(c1cnccn1)N(C)C(=O)c1ccc(C[C@@H]2CC[C@H]([C@H](O)c3ccc(F)cc3)N2)cc1` (stereo partly drawn) [Example 41-F, 4-(((2S,5R)-5-((R)-(4-fluorophenyl)(hydroxy)methyl)pyrrolidin-2-yl)methyl)-N-methyl-N-(1-(pyrazin-2-yl)ethyl)benzamide]: in experiment [2], the EC50 turned out to be 6 nM, the “Fold drop in potency vs. 2-chloropyridine analog” value worked out at 3.5 fold and the “Human β3-AR Agonist Activity (%)” value stood at 83%.
Regarding `CN(Cc1ccnnc1)C(=O)c1ccc(C[C@@H]2CC[C@H]([C@H](O)c3ccc(Cl)nc3)N2)cc1` [Example 42-A, 4-(((2S,5R)-5-((R)-(6-chloropyridin-3-yl)(hydroxy)methyl)pyrrolidin-2-yl)methyl)-N-methyl-N-(pyridazin-4-ylmethyl)benzamide], in experiment [2], the EC50 turned out to be 3 nM and the “Human β3-AR Agonist Activity (%)” value is given as 94%.
As for `CN(Cc1ccnnc1)C(=O)c1ccc(C[C@@H]2CC[C@H]([C@H](O)c3ccccc3)N2)cc1` [Example 42-B, 4-(((2S,5R)-5-((R)-hydroxy(phenyl)methyl)pyrrolidin-2-yl)methyl)-N-methyl-N-(pyridazin-4-ylmethyl)benzamide], in experiment [2], the EC50 was 55 nM, the “Fold drop in potency vs. 2-chloropyridine analog” value is 16.1 fold and the “Human β3-AR Agonist Activity (%)” value came out at 111%.
For the compound `Cc1nnc2ccc(CN(C)C(=O)c3ccc(C[C@@H]4CC[C@H]([C@H](O)c5ccc(Cl)nc5)N4)cc3)cn12` [Example 43-A, 4-(((2S,5R)-5-((R)-(6-chloropyridin-3-yl)(hydroxy)methyl)pyrrolidin-2-yl)methyl)-N-methyl-N-((3-methyl-[1,2,4]triazolo[4,3-a]pyridin-6-yl)methyl)benzamide], in experiment [2], the EC50 was more than 10000 nM and the “Human β3-AR Agonist Activity (%)” value was found to be 45%.
`Cc1nnc2ccc(CN(C)C(=O)c3ccc(C[C@@H]4CC[C@H]([C@H](O)c5ccccc5)N4)cc3)cn12` [Example 43-B, 4-(((2S,5R)-5-((R)-hydroxy(phenyl)methyl)pyrrolidin-2-yl)methyl)-N-methyl-N-((3-methyl-[1,2,4]triazolo[4,3-a]pyridin-6-yl)methyl)benzamide]: in experiment [2], the EC50 is 1620 nM, the “Fold drop in potency vs. 2-chloropyridine analog” value is listed as less than 0.12 fold and the “Human β3-AR Agonist Activity (%)” value is 79%.
On to `CN(Cc1nc2ccsc2c(=O)[nH]1)C(=O)c1ccc(C[C@@H]2CC[C@H]([C@H](O)c3ccc(Cl)nc3)N2)cc1` [Example 44-A, 4-(((2S,5R)-5-((R)-(6-chloropyridin-3-yl)(hydroxy)methyl)pyrrolidin-2-yl)methyl)-N-methyl-N-((4-oxo-3,4-dihydrothieno[3,2-d]pyrimidin-2-yl)methyl)benzamide], for which, in experiment [2], the EC50 stood at 2 nM and the “Human β3-AR Agonist Activity (%)” value worked out at 99%.
As for `CN(Cc1nc2ccsc2c(=O)[nH]1)C(=O)c1ccc(C[C@@H]2CC[C@H]([C@H](O)c3ccccc3)N2)cc1` [Example 44-B, 4-(((2S,5R)-5-((R)-hydroxy(phenyl)methyl)pyrrolidin-2-yl)methyl)-N-methyl-N-((4-oxo-3,4-dihydrothieno[3,2-d]pyrimidin-2-yl)methyl)benzamide], in experiment [2], the EC50 is 4 nM, the “Fold drop in potency vs. 2-chloropyridine analog” value stood at 1.7 fold and the “Human β3-AR Agonist Activity (%)” value stood at 97%.
In the case of `CN(Cc1nc2ccccc2c(=O)n1C)C(=O)c1ccc(C[C@@H]2CC[C@H]([C@H](O)c3ccc(Cl)nc3)N2)cc1` [Example 45-A, 4-(((2S,5R)-5-((R)-(6-chloropyridin-3-yl)(hydroxy)methyl)pyrrolidin-2-yl)methyl)-N-methyl-N-((3-methyl-4-oxo-3,4-dihydroquinazolin-2-yl)methyl)benzamide], in experiment [2], the EC50 is 25 nM and the “Human β3-AR Agonist Activity (%)” value turned out to be 90%.
On to `CN(Cc1nc2ccccc2c(=O)n1C)C(=O)c1ccc(C[C@@H]2CC[C@H]([C@H](O)c3ccccc3)N2)cc1` [Example 45-B, 4-(((2S,5R)-5-((R)-hydroxy(phenyl)methyl)pyrrolidin-2-yl)methyl)-N-methyl-N-((3-methyl-4-oxo-3,4-dihydroquinazolin-2-yl)methyl)benzamide], for which, in experiment [2], the EC50 turned out to be 65 nM, the “Fold drop in potency vs. 2-chloropyridine analog” value is listed as 2.6 fold and the “Human β3-AR Agonist Activity (%)” value came to 81%.

One may read the EC50 as the concentration at which the effect is half-maximal.
